According to patent US20240002407A1, “THIENOPYRIMIDINONE DERIVATIVES” (Hoffmann-La Roche Inc., priority 2021, published 2024):
pEC50: −log10 of the molar value.

test system: mutant HTT protein (mHTT); experiment: Homogeneous Time Resolved Fluorescence (HTRF) assay for HTT lowering in GENEAe020-A cells; type: cell-based; conditions: reduction of mHTT; Huntington patient human cells (GENEAe020-A cell line); 48 hours incubation; mean from three replicates
Method: The HTRF assay was adapted from Weiss et al. (Analytical Biochemistry Volume 395, Issue 1, 1 Dec. 2009, Pages 8-15 and Analytical Biochemistry Volume 410, 2011, Pages 304-306) to cells from GENEAe020-A cell line (https://hpscreg.eu/cell-line/GENEAe020-A).
Compounds were tested for the effect of mutant HTT levels in Huntington patient human cells (GENEAe020-A cell line) using Homogeneous Time Resolved Fluorescence (HTRF) directed towards mutant HTT protein (mHTT). The GENEAe020-A cell line was derived by Genea Biocells from human blastocysts of HD donors. After assessing viability, cells were plated into 384 well collagen coated plates in growth media. Once cells adhered, media was removed and test compounds dissolved in DMSO were diluted with buffer solution and added to the adherent cells. Controls included experiments with no cells, DMSO with no compound, and Hsp90 inhibitor control. Cells were incubated with compounds and controls for 48 hours. Then, the cells were lysed and transferred to an assay plate containing HTRF labeled monoclonal antibodies developed by Paul Patterson (Ko et al., Brain Research Bulletin, Volume 56, Numbers 3 and 4, 2001, Pages 319-329) which recognize specific areas of the HTT protein. The terbium labeled “donor” antibody (2B7) binds to the N-terminus of the HTT protein and the Alexa488 labeled “acceptor” antibody (MW1) is specific for the polyglutamine region of the protein. Binding of the acceptor labeled antibody is more efficient for the extended polyglutamine repeats of mutant HTT protein which translates into a signal boost which enables the specific measurement of mutant HTT protein level. The HTRF donor and acceptor detection reagents were incubated with the cell lysate and the ratio between the signals of the two fluorophores is indicative of the relative quantities of mHTT.

Going from `Cc1cn2nc(-c3nc4sc([C@H]5CCNC[C@H]5F)cc4c(=O)[nH]3)cc(C)c2n1` (racemic) [Example 2, 2-(2,8-Dimethylimidazo[1,2-b]pyridazin-6-yl)-6-[(3SR,4SR)-3-fluoro-4-piperidyl]-3H-thieno[2,3-d]pyrimidin-4-one] to `Cc1cn2nc(-c3nc4sc(C5CCNCC5(F)F)cc4c(=O)[nH]3)cc(C)c2n1` (stereo not drawn) [Example 3, 6-(3,3-Difluoro-4-piperidyl)-2-(2,8-dimethylimidazo[1,2-b]pyridazin-6-yl)-3H-thieno[2,3-d]pyrimidin-4-one], the pEC50 falls from 6.69 to 5.64 (1.05 log units).

Compared with `Cc1cn2nc(-c3nc4sc(C5CCNCC5)cc4c(=O)[nH]3)cc(C)c2n1` [Example 1, 2-(2,8-Dimethylimidazo[1,2-b]pyridazin-6-yl)-6-(4-piperidyl)-3H-thieno[2,3-d]pyrimidin-4-one hydrogen chloride], `Cc1cn2nc(-c3nc4sc(OC5CCNCC5)cc4c(=O)[nH]3)cc(C)c2n1` [Example 5, 2-(2,8-Dimethylimidazo[1,2-b]pyridazin-6-yl)-6-(4-piperidyloxy)-3H-thieno[2,3-d]pyrimidin-4-one] is 0.75 log units lower in pEC50: 7.30 for the first, 6.55 for the second.

Compared with `Cc1cn2nc(-c3nc4sc(OC5CNC5)cc4c(=O)[nH]3)cc(C)c2n1` [Example 4, 6-(Azetidin-3-yloxy)-2-(2,8-dimethylimidazo[1,2-b]pyridazin-6-yl)-3H-thieno[2,3-d]pyrimidin-4-one], `Cc1cn2nc(-c3nc4sc(C5CCNC6(CC6)C5)cc4c(=O)[nH]3)cc(C)c2n1` (stereo not drawn) [Example 6, 6-(4-Azaspiro[2.5]octan-7-yl)-2-(2,8-dimethylimidazo[1,2-b]pyridazin-6-yl)-3H-thieno[2,3-d]pyrimidin-4-one] is 1.36 log units higher in pEC50: 5.33 for the first, 6.69 for the second.
